ChEMBL document CHEMBL1122359, “Improved delivery through biological membranes. 13. Brain-specific delivery of dopamine with a dihydropyridine in equilibrium with pyridinium salt type redox delivery system” (1983)

Experiments:
Format in all cases: functional
Rattus norvegicus [1] = species: Rattus norvegicus; test: Percent decrease in serum prolactin concentration in male rats
Rattus norvegicus [2] = species: Rattus norvegicus; test: In vitro Inhibitory activity against prolactin release in anterior pituitary from adult female rats(Charles Rivers Labs) at a concentration of 2*10e-8M
Rattus norvegicus [3] = species: Rattus norvegicus; test: In vitro Inhibitory activity against prolactin release in anterior pituitary from adult female rats(Charles Rivers Labs), at a concentration of 2*10e-7M
Rattus norvegicus [4] = test: In vitro Weight change in anterior pituitary after the administration of the compound

SMILES: C[n+]1cccc(C(=O)NCCc2ccc(O)c(O)c2)c1.[I-]
- Decrease (Rattus norvegicus [1]): 67%
- Prolactin release rate (Rattus norvegicus [2]): 386 ng/mg/h
- Prolactin release rate (Rattus norvegicus [3]): 277 ng/mg/h
- Weight change of AP-S (Rattus norvegicus [4]): 4.7 mg

SMILES: CN1C=CCC(C(=O)NCCc2ccc(OC(=O)C(C)(C)C)c(OC(=O)C(C)(C)C)c2)=C1
- Decrease (Rattus norvegicus [1]): 79%

SMILES: NCCc1ccc(O)c(O)c1 [DOPAMINE]
- Prolactin release rate (Rattus norvegicus [2]): 355 ng/mg/h
